Laboratory results taken from US20240207457A1, “CANCER-SPECIFIC POLYPEPTIDE AND USE THEREOF” (THE CATHOLIC UNIVERSITY OF KOREA INDUSTRY-ACADEMIC …, priority 2021, published 2024).
Each block holds one molecule with its values, some of them ahead of it. Where no end group is shown, it is not given here.

How the values were obtained:
[1] = system: MKN45 cells; experiment: ROS detection by DCF-DA staining; assay type: cell-based; conditions: Ce6-peptide with laser irradiation, FIG. 9
Description: To confirm whether cells were killed by photodynamic therapy, DCF-DA staining was performed to check whether cell death, the mechanism of the corresponding treatment, was caused by reactive oxygen species (ROS).

[2] = system: MKN45 xenograft mouse model; experiment: Ex vivo tumor-targeting analysis of extracted organs (IVIS); assay type: in vivo, mice; conditions: organs extracted 4 hours after injection, 5 mg/kg
Description: To confirm the tumor-targeting ability of Ce6-peptide, an in vivo targeting experiment was performed on an MKN45 xenograft mouse model. Ce6 and the Ce6-peptide were injected at a concentration of 5 mg/kg into the tail vein of mice in which a tumor with a diameter of about 8 mm was developed. After 4 hours, the concentration of Ce6 in the tumor was confirmed using an in vivo imaging system (IVIS).
In addition, organs were extracted from each subject 4 hours after the injection to analyze tumor-targeting ability ex vivo using an IVIS.

[3] = system: AGS, MKN45, and MKN28 gastric cancer cell lines and CCD841 normal cells; experiment: Cellular uptake of Ce6-peptide; assay type: cell-based; conditions: 10 uM; FIG. 7
Description: (§1) To confirm the tumor-targeting and therapeutic efficacies of the peptide, photodynamic therapy using chlorin e6 (Ce6), a photosensitizer, was performed. First, to confirm the degree of cellular uptake of Ce6-peptide, AGS, MKN45, and MKN28, gastric cancer cell lines, and CCD841 cells, normal cells, were each independently treated with the Ce6-peptide at a concentration of 10 uM.

[4] = system: MKN45 cells; experiment: Photodynamic therapy cytotoxicity with laser irradiation; assay type: cell-based; conditions: laser 10 J, 500 mW, 3 cm, 2 minutes 35 seconds
Description: To analyze cytotoxicity through photodynamic therapy, MKN45 cells were treated with Ce6 and the Ce6-peptide at concentrations of 0, 1, 5, 10, 20, 50, 100 nM, and 1 μM and then irradiated with a laser beam based on 10 J, 500 mW, and 3 cm for 2 minutes and 35 seconds.

[5] = system: MKN45 xenograft mouse model; experiment: Local tumor treatment efficacy through peptide and laser irradiation; assay type: in vivo, mice; conditions: for body weight during the treatment period: laser 200 J
Description: To confirm local tumor treatment efficacy using the peptide, an experiment was performed by dividing the mice in Example 6 into four groups: an untreated group, a group irradiated with a laser beam, a group irradiated with a laser beam after Ce6 administration, and a group irradiated with a laser beam after Ce6-peptide administration. Ce6 and the Ce6-peptide were administered at a concentration of 5 mg/kg into the tail vein. When 4 hours elapsed, the tumor area was irradiated with a laser beam for 9 minutes under conditions based on 200 J and 300 mW.

[6] = system: MKN45 cells; experiment: Dark toxicity experiment without laser irradiation; assay type: cell-based; conditions: for dark toxicity: 0 to 100 nM and 1 μM, FIGS. 8A and 8B
Description: To analyze cytotoxicity through photodynamic therapy, MKN45 cells were treated with Ce6 and the Ce6-peptide at concentrations of 0, 1, 5, 10, 20, 50, 100 nM, […]

[7] = system: MKN45 intraperitoneal metastasis model; experiment: Peptide targeting ability in intraperitoneal metastasis model (IVIS); assay type: in vivo, Balb/c nude mice; conditions: 5 mg/kg
Description: Through Example 6, the targeting ability in vivo of the peptide was confirmed in the xenograft model using MKN45, the gastric cancer cell line. Accordingly, to further verify the targeting ability in an intraperitoneal metastasis model, the same MKN45 cell line was injected intraperitoneally, and the targeting ability of the peptide was further verified.
Intraperitoneal metastasis was confirmed within two weeks by injecting 1×10^7 of the GFP-tagged MKN45 cell line into 5-week-old Balb/c nude mice. As a result, as shown in FIGS. 14A and 14B, additional infiltration of the cells into the liver, kidney, and spleen tissues and large tumors with a size of about 2 cm were observed.
To confirm the targeting ability of the peptide, modeled mice with intraperitoneal metastasis were treated with Ce6 and the Ce6-peptide at a concentration of 5 mg/kg and autopsied 4 hours after the treatment to confirm the concentration of the substance in the tissues using an IVIS.

[8] = system: MKN45 xenograft model; experiment: Targeting ability in vivo of Cy5.5-binding peptide; parameters: species or system mice; conditions: FIGS. 6A and 6B
Description: Through Examples 1 to 3, the gastric cancer-targeting ability of the peptide was confirmed at the cellular level. Accordingly, to confirm the targeting ability in vivo, a xenograft model was created using MKN45 in 5-week-old immunodeficient mice. Then, Cy5.5-binding peptide was injected at a concentration of 50 nM into the tail vein.

[9] = system: CCD841 cells and MKN45 cells; experiment: Fluorescence density saturation of FITC-peptide; assay type: cell-based; conditions: FIG. 4
Description: To confirm the maximum fluorescence absorption capacity of FITC-peptide, CCD841 cells and MKN45 cells were attached to each 8-well chamber. Then, the chamber was treated with the peptide at concentrations of 1, 10, 25, 50, 100, 200, 400, and 800 uM.

[10] = system: MKN45 gastric cancer cells vs CCD841 normal cells; experiment: FITC fluorescence density by flow cytometer; assay type: cell-based; conditions: 25, 50, and 100 µM for 1 hour, FIGS. 5A and 5B
Description: In addition, after treating each of the CCD841 cells and the MKN45 cells with FITC-peptide at a concentration of 25, 50, and 100 µM for 1 hour, the FITC fluorescence density was measured using a flow cytometer.

[11] = system: HEK293T kidney cells not containing the LGR5 receptor; experiment: Immunochemical staining of FITC-peptide in HEK293T cells; assay type: cell-based; conditions: bound to FITC, FIG. 3
Source text: (§2) To confirm the attachment abilities, phage No. 24 and the peptide were each independently bound to FITC to perform immunochemical staining.

[12] = system: AGS, MKN45, and MKN28, the gastric cancer cell lines (vs CCD841 normal colonic epithelial cell line); experiment: Immunochemical staining of FITC-bound phage and peptide (attachment ability); assay type: cell-based; conditions: bound to FITC, FIG. 2
Source text: as §2

[13] = system: tumor tissue; experiment: Tumor tissue treated with FITC-bound target and negative control peptide; conditions: peptides binding to FITC; FIG. 13
Description: To confirm the tumor-targeting ability of the target peptide, the tumor tissue was treated with both the target peptide and a negative control peptide, not having the attachment ability to tumors, binding to FITC. The negative control peptide is a peptide made by randomly mixing the amino acid positions of the […] peptide sequence “QLMRPPV” (SEQ ID NO: 2).

[14] = target: T1, LGR5 protein on gastric cancer cell lines (AGS, MKN45, MKN28) (UniProt O75473 22-907, limits assumed); experiment: cell fluorescence after 10 uM Ce6-peptide on AGS, MKN45 and MKN28 versus CCD841 cells
T1 construct: whole, on cells; also called LGR5 receptor; gastric cancer cell lines containing LGR5
T1 sequence (looked up): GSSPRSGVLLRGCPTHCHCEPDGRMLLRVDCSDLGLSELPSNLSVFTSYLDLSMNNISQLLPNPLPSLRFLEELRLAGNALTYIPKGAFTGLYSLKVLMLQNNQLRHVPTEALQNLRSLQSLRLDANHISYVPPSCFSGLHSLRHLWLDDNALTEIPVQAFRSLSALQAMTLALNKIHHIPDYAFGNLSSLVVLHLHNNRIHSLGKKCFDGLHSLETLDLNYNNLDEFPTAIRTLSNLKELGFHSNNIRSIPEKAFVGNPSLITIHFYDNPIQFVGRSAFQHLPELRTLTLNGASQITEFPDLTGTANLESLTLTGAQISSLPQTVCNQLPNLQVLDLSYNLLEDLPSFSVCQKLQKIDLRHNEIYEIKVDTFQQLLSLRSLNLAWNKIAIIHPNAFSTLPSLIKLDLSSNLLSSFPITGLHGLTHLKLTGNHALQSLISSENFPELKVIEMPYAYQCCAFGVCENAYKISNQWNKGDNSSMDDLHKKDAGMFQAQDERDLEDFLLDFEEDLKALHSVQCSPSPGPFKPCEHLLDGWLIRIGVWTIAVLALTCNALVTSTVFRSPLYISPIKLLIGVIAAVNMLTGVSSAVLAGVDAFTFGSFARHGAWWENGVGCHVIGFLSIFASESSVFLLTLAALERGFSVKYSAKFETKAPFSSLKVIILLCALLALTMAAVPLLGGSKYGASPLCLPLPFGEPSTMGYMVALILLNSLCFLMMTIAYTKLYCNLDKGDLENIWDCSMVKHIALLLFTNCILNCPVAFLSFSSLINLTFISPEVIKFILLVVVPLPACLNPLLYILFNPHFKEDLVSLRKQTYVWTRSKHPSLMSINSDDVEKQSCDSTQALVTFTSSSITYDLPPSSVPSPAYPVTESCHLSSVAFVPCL
Description: as §1

[15] = 5 mg/kg tail vein, 300 mW, 9 minutes
[16] = injected at 50 nM into the tail vein

Molecule: OO [hydrogen peroxide, reference compound]
ROS detection [1]: ROS was detected

Molecule: Ce6-peptide: peptide of SEQ ID NO: 1 bound to chlorin e6 (Ce6), a photosensitizer (STCTRSR; also: bound to chlorin e6 (site not given here))
tumor-targeting ability ex vivo compared with Ce6 alone [2]: significantly better | fluorescence density, gastric cancer cell lines compared with normal cell line [3]: higher | concentration from which cells were rapidly killed [4]: ≥ 50 nM | body weight during the treatment period [5, 15]: No change in body weight was observed | time after the treatment at which tumor necrosis was observed ([5]; 5 mg/kg tail vein, laser after 4 hours, 200 J, 300 mW, 9 minutes): 2 days | tumor size compared with the other groups ([5]; on the 7th day, 5 mg/kg plus laser, FIGS. 12A and 12B): significantly reduced | ROS detection [1]: detected in a concentration-dependent manner | dark toxicity [6]: significant toxicity was not induced | cells killed ([6]; 1 μM): 60% | concentration in the kidney ([7]; 4 hours after the treatment): high concentration in the kidney | excretion from the body compared with Ce6 alone ([7]; 4 hours after the treatment): more likely to be excreted from the body | non-specific binding to other organs compared with Ce6 alone ([7]; 4 hours after the treatment): less likely to non-specifically bind to other organs | tumor-targeting ability compared with Ce6 alone ([7]; autopsied 4 hours after the treatment, FIGS. 15A and 15B): better

Molecule: Cy5.5-binding peptide: peptide of SEQ ID NO: 1 bound to Cy5.5, a fluorescent material (STCTRSR; also: bound to Cy5.5 (site not given here))
tumor-targeting ability compared with the control peptide group [8]: further better tumor-targeting ability | fluorescence density in the tumor tissue [8, 16]: significantly high fluorescence density | fluorescence in other organs (heart, lung, liver, spleen, kidney) [8, 16]: poorly detected

Molecule: FITC-peptide: peptide of SEQ ID NO: 1 bound to FITC, a fluorescent material (STCTRSR; also: bound to FITC (site not given here))
concentration from which fluorescence density was saturated in all cells ([9]; CCD841 and MKN45 cells): ≥ 100 UM | concentration at which the difference in fluorescence density values between CCD841 and MKN45 cells was the largest ([9]; treated at 1 to 800 uM): 25 UM | FITC fluorescence density value, MKN45 compared with CCD841 [10]: increased in a concentration-dependent manner

Molecule: STCTRSR (LGR5-targeting peptide)
attachment ability in HEK293T kidney cells [11]: not able to be confirmed | attachment ability, gastric cancer cell lines compared with CCD841 ([12]; AGS, MKN45, MKN28 vs CCD841 normal colonic epithelial cell line): better | attachment ability in the MKN45 cell line ([12]; MKN45): significantly good | fluorescence based on FITC attachment to tumor tissue [13]: significantly high

Molecule: chlorin e6 [Ce6, reference compound]
infiltration into the tumor compared with other organs (heart, lung, liver, spleen, kidney) ([2]; FIGS. 11A and 11B): more infiltrated into the tumor than into other organs | cell killing with laser irradiation [4]: cells were not killed | body weight during the treatment period [5, 15]: No change in body weight was observed | dark toxicity [6]: significant toxicity was not induced

Molecule: negative control peptide: peptide made by randomly mixing the amino acid positions of the non-specific binding peptide sequence QLMRPPV (SEQ ID NO: 2); bound to FITC (also: bound to FITC (site not given here)) [reference compound]
fluorescence based on FITC attachment to tumor tissue [13]: not confirmed

fold difference in uptake (fluorescence density), gastric cancer cell lines versus normal CCD841 cells [14]: ≥ 11 times
B1: Ce6-peptide (STCTRSR peptide of SEQ ID NO: 1 bound to chlorin e6) (peptide)
peptide: STCTRSR
modifications: also: chlorin e6 bound to the peptide (site not given here)
notes: also called photosensitizer-peptide composite
